ChEMBL document CHEMBL1139774, “3-Hydroxy-4-methoxyindolomorphinans as delta opioid selective ligands” (Bioorg Med Chem Lett, 2007)

Species on record: Rattus norvegicus
Assay: Selectivity for rat recombinant delta opioid receptor over rat recombinant mu opioid receptor
COc1c(O)ccc2c1[C@]13CCN(C)[C@H](C2)[C@]1(O)Cc1c([nH]c2ccccc12)C3 was tested, and the Ratio Ki was 105. COc1ccc2c(c1OC)[C@]13CCN(C)[C@H](C2)[C@]1(O)Cc1c([nH]c2ccccc12)C3 was tested, and the Ratio Ki was 185. COc1ccc2c(c1OC)[C@]13CCN(CC4CC4)[C@H](C2)[C@]1(O)Cc1c([nH]c2ccccc12)C3 was tested, and the Ratio Ki was 90. In the case of COc1c(O)ccc2c1[C@]13CCN(CC4CC4)[C@H](C2)[C@]1(O)Cc1c([nH]c2ccccc12)C3, the Ratio Ki is reported as 145. CN1CC[C@]23c4c5ccc(O)c4O[C@H]2c2[nH]c4ccccc4c2C[C@@]3(O)[C@H]1C5 [OXYMORPHINDOLE CHLORIDE] was tested, and the Ratio Ki was 115.

These compounds were tested against Kappa-type opioid receptor (Homo sapiens, UniProt P41145) (assay: Displacement of [3H]U-69593 from human recombinant kappa opioid receptor expressed in CHO cells).
Sequence of Kappa-type opioid receptor (P41145 whole entry): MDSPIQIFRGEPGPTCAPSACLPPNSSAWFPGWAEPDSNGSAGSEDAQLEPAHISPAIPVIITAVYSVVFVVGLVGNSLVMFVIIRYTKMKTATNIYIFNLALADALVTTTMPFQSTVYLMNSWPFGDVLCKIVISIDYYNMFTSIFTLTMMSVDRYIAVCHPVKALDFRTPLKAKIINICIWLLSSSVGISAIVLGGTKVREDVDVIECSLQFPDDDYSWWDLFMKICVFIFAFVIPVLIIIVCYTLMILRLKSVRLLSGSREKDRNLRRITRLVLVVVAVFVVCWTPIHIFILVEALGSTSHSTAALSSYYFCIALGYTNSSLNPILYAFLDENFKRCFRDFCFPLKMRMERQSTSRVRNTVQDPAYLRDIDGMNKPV
Assay type: cell-based
With COc1c(O)ccc2c1[C@]13CCN(C)[C@H](C2)[C@]1(O)Cc1c([nH]c2ccccc12)C3 the Ki was 582 nM. With COc1ccc2c(c1OC)[C@]13CCN(C)[C@H](C2)[C@]1(O)Cc1c([nH]c2ccccc12)C3 the Ki was > 7000 nM. COc1ccc2c(c1OC)[C@]13CCN(CC4CC4)[C@H](C2)[C@]1(O)Cc1c([nH]c2ccccc12)C3 gave a Ki of 1440 nM. In the case of COc1c(O)ccc2c1[C@]13CCN(CC4CC4)[C@H](C2)[C@]1(O)Cc1c([nH]c2ccccc12)C3, the Ki is reported as 79 nM. Compound CN1CC[C@]23c4c5ccc(O)c4O[C@H]2c2[nH]c4ccccc4c2C[C@@]3(O)[C@H]1C5 [OXYMORPHINDOLE CHLORIDE] has a Ki of 515 nM.

These compounds were tested against Mu-type opioid receptor (Rattus norvegicus, UniProt P33535) (assay: Displacement of [3H]DAMGO from rat recombinant mu opioid receptor expressed in C6 cells).
Sequence of Mu-type opioid receptor (P33535 whole entry): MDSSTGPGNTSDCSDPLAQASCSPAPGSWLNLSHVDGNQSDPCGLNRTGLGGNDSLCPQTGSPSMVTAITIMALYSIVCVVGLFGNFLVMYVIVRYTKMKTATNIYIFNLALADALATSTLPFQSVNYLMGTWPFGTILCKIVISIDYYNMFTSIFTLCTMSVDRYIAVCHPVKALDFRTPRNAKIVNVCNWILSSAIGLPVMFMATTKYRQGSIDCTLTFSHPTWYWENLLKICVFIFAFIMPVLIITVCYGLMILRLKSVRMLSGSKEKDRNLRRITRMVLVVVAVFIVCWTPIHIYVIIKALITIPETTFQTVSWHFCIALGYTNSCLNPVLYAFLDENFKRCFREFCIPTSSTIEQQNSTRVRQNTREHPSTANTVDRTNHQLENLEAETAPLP
Assay type: cell-based
Compound COc1c(O)ccc2c1[C@]13CCN(C)[C@H](C2)[C@]1(O)Cc1c([nH]c2ccccc12)C3 has a Ki of 474 nM. With COc1ccc2c(c1OC)[C@]13CCN(C)[C@H](C2)[C@]1(O)Cc1c([nH]c2ccccc12)C3 the Ki was 7590 nM. COc1ccc2c(c1OC)[C@]13CCN(CC4CC4)[C@H](C2)[C@]1(O)Cc1c([nH]c2ccccc12)C3 gave a Ki of 1720 nM. With COc1c(O)ccc2c1[C@]13CCN(CC4CC4)[C@H](C2)[C@]1(O)Cc1c([nH]c2ccccc12)C3 the Ki was 58 nM. For CN1CC[C@]23c4c5ccc(O)c4O[C@H]2c2[nH]c4ccccc4c2C[C@@]3(O)[C@H]1C5 [OXYMORPHINDOLE CHLORIDE], the Ki was 105 nM.

What follows are compounds tested against Delta-type opioid receptor (Rattus norvegicus, UniProt P33533) (assay: Displacement of [3H]p-Cl-DPDPE from rat recombinant delta opioid receptor expressed in C6 cells).
Sequence of Delta-type opioid receptor (P33533 whole entry): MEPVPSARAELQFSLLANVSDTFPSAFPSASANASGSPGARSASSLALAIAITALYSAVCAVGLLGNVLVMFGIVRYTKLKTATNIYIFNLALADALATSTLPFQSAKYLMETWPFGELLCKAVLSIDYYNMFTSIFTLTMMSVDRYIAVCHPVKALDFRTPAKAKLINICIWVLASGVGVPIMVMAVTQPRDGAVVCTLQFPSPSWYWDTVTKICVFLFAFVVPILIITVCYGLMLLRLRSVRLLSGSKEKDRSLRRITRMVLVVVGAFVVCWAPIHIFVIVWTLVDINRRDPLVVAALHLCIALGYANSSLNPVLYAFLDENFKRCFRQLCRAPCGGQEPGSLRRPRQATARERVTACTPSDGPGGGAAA
Assay type: cell-based
Compound COc1c(O)ccc2c1[C@]13CCN(C)[C@H](C2)[C@]1(O)Cc1c([nH]c2ccccc12)C3 has a Ki of 4.5 nM. Work on COc1ccc2c(c1OC)[C@]13CCN(C)[C@H](C2)[C@]1(O)Cc1c([nH]c2ccccc12)C3 yielded a Ki of 41 nM. Work on COc1ccc2c(c1OC)[C@]13CCN(CC4CC4)[C@H](C2)[C@]1(O)Cc1c([nH]c2ccccc12)C3 yielded a Ki of 19 nM. Compound COc1c(O)ccc2c1[C@]13CCN(CC4CC4)[C@H](C2)[C@]1(O)Cc1c([nH]c2ccccc12)C3 has a Ki of 0.4 nM. Compound CN1CC[C@]23c4c5ccc(O)c4O[C@H]2c2[nH]c4ccccc4c2C[C@@]3(O)[C@H]1C5 [OXYMORPHINDOLE CHLORIDE] has a Ki of 0.9 nM.
